Assay results taken from ChEMBL document CHEMBL3638619, “Oxazole and thiazole compounds as KSP inhibitors” (2014).

Target: T1, Kinesin-like protein KIF11 (Homo sapiens, UniProt P52732)
T1 sequence (P52732 whole entry): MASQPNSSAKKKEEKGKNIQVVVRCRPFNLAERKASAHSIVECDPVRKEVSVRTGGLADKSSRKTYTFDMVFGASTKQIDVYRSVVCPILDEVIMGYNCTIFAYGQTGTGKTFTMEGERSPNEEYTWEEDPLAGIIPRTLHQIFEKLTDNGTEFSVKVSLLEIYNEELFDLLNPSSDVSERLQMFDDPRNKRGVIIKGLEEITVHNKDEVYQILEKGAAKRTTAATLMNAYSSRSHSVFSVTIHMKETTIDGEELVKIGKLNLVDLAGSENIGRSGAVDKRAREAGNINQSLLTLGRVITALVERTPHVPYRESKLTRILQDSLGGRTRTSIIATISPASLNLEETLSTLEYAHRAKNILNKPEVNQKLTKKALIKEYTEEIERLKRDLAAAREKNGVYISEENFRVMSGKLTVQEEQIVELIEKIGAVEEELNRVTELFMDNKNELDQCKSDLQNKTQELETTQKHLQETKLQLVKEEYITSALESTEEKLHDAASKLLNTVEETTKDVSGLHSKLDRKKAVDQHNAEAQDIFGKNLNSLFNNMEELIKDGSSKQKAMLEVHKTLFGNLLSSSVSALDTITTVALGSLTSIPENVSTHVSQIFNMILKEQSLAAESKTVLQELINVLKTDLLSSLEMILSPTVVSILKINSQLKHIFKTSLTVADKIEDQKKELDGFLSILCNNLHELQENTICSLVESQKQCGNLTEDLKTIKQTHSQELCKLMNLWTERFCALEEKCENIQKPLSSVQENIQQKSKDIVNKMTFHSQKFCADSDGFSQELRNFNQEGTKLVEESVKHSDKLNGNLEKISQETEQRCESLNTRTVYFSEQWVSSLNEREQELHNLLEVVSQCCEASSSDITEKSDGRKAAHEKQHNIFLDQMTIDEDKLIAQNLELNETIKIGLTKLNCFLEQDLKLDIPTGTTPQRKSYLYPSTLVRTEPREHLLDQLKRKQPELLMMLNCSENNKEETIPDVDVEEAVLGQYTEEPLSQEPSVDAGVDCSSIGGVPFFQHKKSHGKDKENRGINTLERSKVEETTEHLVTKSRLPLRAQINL
Experiment: In Vitro Assay: This example provides a representative in vitro assay for determining KSP activity in vitro. Purified microtubules obtained from bovine brain were purchased from Cytoskeleton Inc. (Denver, Colo., USA). The motor domain of human KSP (Eg 5, KNSL1) was cloned, expressed, and purified to greater than 95% homogeneity. Biomol Green was purchased from Affinity Research Products Ltd. (Matford Court, Exeter, Devon, United Kingdom). Microtubules and KSP motor protein (i.e., the KSP motor domain) were diluted in assay buffer (20 mM Tris-HCl (pH 7.5), 1 mM MgCl2, 10 mM DTT and 0.25 mg/mL BSA) to a final concentration of 35 μg/mL microtubules and 45 nM KSP. The microtubule/KSP mixture was then pre-incubated at 37 C. for 10 min to promote the binding of KSP to microtubules.

For `C[C@H](O)C(=O)N(CC[C@H](N)CF)[C@H](c1nc(-c2cc(F)ccc2F)sc1Cc1ccccc1)C(C)(C)C`, the IC50 was 216 nM.
